According to patent US20240150360A1 (THE REGENTS OF THE UNIVERSITY OF MICHIGAN, priority 2021, published 2024):

Key:
[1] = molecular target: T1, CBP (Homo sapiens, UniProt Q92793); assay: CBP degradation in 22Rv1 cells (5 h); format: cell-based; conditions: 22Rv1 cells, 5 h; for Dmax: 22Rv1, 5 h, read-out: CBP Degradation (22Rv1, 5 h) DCmax
T1 construct: endogenous in cells; host or cells: 22Rv1 (ATCC CRL-2505) human prostate cancer cells
From the text: (§1) Biological Assays. […] Cells with 3-8 passages after purchase were used in experiments.

[2] = system: HL60; assay: Cell growth inhibition in HL60; format: cell-based; conditions: Homo sapiens, HL-60, HL60 cells; read-out: Cell Growth Inhibition (IC50) HL60
[3] = molecular target: T2, P300 (Homo sapiens, UniProt Q09472); assay: P300 degradation in 22Rv1 cells (5 h); format: cell-based; conditions: 22Rv1 cells, 5 h; for Dmax: read-out: P300 Degradation (22Rv1, 5 h) DCmax
T2 construct: endogenous in cells; host or cells: 22Rv1 (ATCC CRL-2505) human prostate cancer cells
T2 sequence (Q09472 whole entry): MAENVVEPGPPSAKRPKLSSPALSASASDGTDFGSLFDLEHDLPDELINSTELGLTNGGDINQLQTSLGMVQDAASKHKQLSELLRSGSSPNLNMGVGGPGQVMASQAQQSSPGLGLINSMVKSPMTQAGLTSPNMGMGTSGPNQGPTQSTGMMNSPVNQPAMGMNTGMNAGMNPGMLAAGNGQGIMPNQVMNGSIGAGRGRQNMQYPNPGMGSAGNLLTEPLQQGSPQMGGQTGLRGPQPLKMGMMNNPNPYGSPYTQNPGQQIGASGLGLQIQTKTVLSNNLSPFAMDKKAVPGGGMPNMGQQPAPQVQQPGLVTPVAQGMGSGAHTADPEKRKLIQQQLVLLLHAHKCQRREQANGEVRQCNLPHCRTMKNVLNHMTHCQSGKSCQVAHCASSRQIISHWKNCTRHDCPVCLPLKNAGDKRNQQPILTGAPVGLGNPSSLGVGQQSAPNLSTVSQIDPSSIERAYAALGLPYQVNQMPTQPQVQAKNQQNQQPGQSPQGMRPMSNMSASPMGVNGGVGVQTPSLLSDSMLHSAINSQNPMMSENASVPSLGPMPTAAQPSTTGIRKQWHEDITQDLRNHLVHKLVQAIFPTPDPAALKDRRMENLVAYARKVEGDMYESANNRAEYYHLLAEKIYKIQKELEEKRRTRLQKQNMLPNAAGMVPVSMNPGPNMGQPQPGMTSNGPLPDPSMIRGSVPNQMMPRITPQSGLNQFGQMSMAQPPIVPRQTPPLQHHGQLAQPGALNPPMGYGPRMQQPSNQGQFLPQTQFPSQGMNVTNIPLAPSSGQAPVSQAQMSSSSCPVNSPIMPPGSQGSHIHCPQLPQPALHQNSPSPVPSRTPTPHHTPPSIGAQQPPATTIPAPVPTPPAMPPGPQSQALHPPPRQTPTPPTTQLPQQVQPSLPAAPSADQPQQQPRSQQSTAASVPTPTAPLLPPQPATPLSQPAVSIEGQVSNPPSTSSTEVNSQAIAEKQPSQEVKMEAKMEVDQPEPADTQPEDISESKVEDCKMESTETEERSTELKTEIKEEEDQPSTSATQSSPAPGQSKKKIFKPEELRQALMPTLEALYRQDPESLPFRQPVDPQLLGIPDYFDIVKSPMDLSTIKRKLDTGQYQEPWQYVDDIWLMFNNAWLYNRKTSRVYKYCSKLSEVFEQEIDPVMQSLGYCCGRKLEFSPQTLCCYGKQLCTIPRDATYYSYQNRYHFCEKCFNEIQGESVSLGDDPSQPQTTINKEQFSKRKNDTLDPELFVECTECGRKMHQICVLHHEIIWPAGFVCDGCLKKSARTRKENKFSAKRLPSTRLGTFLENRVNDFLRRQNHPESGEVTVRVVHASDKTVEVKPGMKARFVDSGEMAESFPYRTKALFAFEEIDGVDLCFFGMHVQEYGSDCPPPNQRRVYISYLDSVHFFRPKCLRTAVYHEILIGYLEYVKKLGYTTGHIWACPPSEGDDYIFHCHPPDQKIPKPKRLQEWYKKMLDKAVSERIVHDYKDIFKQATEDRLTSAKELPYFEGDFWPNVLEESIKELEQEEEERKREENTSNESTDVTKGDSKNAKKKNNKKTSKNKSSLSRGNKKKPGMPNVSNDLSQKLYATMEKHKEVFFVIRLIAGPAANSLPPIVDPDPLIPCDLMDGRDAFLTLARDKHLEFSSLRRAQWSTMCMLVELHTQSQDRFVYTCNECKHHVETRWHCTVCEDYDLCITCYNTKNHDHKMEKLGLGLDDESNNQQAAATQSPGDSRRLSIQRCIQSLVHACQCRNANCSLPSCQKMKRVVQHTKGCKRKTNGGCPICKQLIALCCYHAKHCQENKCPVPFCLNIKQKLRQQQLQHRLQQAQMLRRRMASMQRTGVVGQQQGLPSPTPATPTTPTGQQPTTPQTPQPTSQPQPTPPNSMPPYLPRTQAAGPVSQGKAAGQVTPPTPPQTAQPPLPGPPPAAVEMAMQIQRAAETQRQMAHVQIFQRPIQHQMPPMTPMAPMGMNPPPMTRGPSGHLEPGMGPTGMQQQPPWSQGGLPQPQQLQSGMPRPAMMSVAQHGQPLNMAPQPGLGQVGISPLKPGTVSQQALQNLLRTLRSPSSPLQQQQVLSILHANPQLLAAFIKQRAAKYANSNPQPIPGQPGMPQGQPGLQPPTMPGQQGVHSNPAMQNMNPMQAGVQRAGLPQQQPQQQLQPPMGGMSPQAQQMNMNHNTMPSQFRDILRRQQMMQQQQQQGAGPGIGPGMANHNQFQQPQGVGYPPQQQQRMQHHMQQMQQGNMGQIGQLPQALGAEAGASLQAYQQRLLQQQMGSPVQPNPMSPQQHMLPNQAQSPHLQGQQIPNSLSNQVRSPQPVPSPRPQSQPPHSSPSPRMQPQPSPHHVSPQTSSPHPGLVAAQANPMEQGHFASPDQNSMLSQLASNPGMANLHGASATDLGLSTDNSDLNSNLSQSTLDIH
From the text: as §1

[4] = system: 22Rv1 cells; assay: Cell growth inhibition assay (CellTiter-Glo) in 22Rv1; format: cell-based, human; conditions: Homo sapiens, 22Rv1, 96 h, 22Rv1 cells, 96 h incubation; read-out: Cell Growth Inhibition (IC50) 22Rv1
Procedure, shortened: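 22Rv1 prostate cancer cells (passages 3-8, DMEM with 10% FBS) were seeded at 4000 cells/well with compound, 3-fold dilutions from 10 μM final. After 96 h at 37° C and 5% CO2, growth was read by CellTiter-Glo 2.0 luminescence.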

T1 sequence (Q92793 whole entry): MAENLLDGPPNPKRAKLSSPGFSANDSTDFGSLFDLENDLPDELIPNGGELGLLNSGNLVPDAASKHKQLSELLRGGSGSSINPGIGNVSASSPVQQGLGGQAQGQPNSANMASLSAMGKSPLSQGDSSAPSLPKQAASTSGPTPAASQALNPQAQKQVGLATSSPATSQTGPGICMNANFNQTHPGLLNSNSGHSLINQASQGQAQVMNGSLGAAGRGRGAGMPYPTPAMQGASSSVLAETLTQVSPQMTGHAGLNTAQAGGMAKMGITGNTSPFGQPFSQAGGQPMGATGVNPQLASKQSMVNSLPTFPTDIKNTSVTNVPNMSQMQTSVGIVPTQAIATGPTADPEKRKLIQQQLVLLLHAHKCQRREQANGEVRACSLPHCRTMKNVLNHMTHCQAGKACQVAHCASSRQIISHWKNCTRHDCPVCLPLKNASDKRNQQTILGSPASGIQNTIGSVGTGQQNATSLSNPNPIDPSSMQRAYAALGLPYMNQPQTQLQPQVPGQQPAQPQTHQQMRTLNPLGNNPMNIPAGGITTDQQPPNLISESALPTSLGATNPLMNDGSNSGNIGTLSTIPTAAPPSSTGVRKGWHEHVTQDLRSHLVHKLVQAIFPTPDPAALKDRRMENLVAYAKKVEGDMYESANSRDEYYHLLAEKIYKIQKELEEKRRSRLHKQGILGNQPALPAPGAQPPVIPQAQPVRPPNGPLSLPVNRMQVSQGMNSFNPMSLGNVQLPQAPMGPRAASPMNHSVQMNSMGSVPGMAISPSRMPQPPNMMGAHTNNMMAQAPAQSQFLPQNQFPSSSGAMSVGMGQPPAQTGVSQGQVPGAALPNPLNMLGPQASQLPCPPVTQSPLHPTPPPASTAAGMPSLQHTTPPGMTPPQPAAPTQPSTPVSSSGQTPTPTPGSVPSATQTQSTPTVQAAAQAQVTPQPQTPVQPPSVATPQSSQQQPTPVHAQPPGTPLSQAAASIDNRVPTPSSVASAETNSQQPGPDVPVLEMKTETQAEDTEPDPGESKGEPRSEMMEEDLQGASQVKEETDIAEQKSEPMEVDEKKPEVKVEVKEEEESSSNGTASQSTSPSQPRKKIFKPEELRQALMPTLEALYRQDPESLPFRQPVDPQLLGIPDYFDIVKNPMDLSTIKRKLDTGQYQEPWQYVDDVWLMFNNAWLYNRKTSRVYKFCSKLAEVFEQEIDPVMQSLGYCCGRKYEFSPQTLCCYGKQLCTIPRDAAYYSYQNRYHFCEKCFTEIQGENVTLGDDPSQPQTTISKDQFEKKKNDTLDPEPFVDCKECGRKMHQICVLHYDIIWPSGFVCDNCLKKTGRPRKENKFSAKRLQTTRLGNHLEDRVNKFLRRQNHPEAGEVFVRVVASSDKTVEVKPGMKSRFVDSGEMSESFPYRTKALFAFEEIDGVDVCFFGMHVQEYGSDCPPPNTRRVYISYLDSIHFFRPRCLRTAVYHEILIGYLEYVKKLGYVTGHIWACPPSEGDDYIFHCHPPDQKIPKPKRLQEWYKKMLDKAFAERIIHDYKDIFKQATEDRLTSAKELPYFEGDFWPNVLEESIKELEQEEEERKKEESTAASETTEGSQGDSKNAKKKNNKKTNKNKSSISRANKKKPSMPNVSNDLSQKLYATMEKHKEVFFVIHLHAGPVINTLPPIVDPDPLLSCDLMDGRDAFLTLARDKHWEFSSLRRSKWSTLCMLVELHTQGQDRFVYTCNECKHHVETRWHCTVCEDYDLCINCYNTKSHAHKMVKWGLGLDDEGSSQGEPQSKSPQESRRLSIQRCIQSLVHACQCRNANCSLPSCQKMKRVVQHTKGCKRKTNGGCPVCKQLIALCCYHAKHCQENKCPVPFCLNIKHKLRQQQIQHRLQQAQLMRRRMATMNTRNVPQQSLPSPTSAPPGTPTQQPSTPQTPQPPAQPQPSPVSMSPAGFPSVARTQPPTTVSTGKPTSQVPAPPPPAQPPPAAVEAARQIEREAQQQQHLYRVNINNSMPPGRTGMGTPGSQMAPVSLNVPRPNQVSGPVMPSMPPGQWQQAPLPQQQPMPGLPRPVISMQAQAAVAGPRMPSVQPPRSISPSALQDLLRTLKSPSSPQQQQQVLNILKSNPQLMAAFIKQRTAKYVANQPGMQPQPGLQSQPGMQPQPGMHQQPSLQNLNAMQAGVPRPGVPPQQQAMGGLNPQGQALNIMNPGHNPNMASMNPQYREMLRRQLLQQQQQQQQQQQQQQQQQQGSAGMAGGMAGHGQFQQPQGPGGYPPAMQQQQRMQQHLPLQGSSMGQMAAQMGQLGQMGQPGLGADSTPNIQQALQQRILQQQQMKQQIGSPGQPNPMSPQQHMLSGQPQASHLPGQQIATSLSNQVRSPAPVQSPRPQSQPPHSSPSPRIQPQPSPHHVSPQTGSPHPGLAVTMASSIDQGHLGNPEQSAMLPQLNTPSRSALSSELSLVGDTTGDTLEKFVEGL

Dmax [1] [%]	DC50 [1] [nM]	IC50 [2] [nM]	DC50 [3] [nM]	Dmax [3] [%]	IC50 [4] [nM]	SMILES
< 50	> 1000	> 10000	> 1000	< 50	> 10000	Cc1noc(C)c1-c1ccc2c(c1)nc([C@@H]1CCCC(=O)N1c1ccc(F)c(F)c1)n2C1CCN(C(=O)CN2CCc3cc4c(cc3CC2)C(=O)N(C2CCC(=O)NC2=O)C4=O)CC1 (stereo partly drawn) [CP-064, 7-(2-(4-(2-((S)-1-(3,4-difluorophenyl)-6-oxopiperidin-2-yl)-5-(3,5-dimethylisoxazol-4-yl)-1H-benzo[d]imidazol-1-yl)piperidin-1-yl)-2-oxoethyl)-2-(2,6-dioxopiperidin-3-yl)-6,7,8,9-tetrahydroazepino[4,5-f]isoindole-1,3(2H,5H)-dione]
> 90	< 10	< 100			< 100	CC(=O)N1CCc2c(c(N3CCCc4cc(-c5cnn(C6CCN(C(=O)CN7Cc8cc9c(cc8C7)C(=O)N(C7CCC(=O)NC7=O)C9=O)CC6)c5)c(C(F)F)cc43)nn2C2CCOCC2)C1 (centres unmarked) [CP-072, 6-(2-(4-(4-(1-(5-acetyl-1-(tetrahydro-2H-pyran-4-yl)-4,5,6,7-tetrahydro-1H-pyrazolo[4,3-c]pyridin-3-yl)-7-(difluoromethyl)-1,2,3,4-tetrahydroquinolin-6-yl)-1H-pyrazol-1-yl)piperidin-1-yl)-2-oxoethyl)-2-(2,6-dioxopiperidin-3-yl)-6,7-dihydropyrrolo[3,4-f]isoindole-1,3(2H,5H)-dione]
> 90	< 10	< 100			< 1000	CC(=O)N1CCc2c(c(N3CCCc4cc(-c5cnn(C6CCN(C(=O)CN7CCc8cc9c(cc8C7)C(=O)N(C7CCC(=O)NC7=O)C9=O)CC6)c5)c(C(F)F)cc43)nn2C2CCOCC2)C1 (centres unmarked) [CP-071, 6-(2-(4-(4-(1-(5-acetyl-1-(tetrahydro-2H-pyran-4-yl)-4,5,6,7-tetrahydro-1H-pyrazolo[4,3-c]pyridin-3-yl)-7-(difluoromethyl)-1,2,3,4-tetrahydroquinolin-6-yl)-1H-pyrazol-1-yl)piperidin-1-yl)-2-oxoethyl)-2-(2,6-dioxopiperidin-3-yl)-5,6,7,8-tetrahydro-1H-pyrrolo[3,4-g]isoquinoline-1,3(2H)-dione]
> 70	< 10	< 100			< 1000	CC(=O)N1CCc2c(c(N3CCCc4cc(-c5cnn(CCCCN6CCc7cc8c(cc7C6)C(=O)N(C6CCC(=O)NC6=O)C8=O)c5)c(C(F)F)cc43)nn2C2CCOCC2)C1 (centres unmarked) [CP-070, 6-(4-(4-(1-(5-acetyl-1-(tetrahydro-2H-pyran-4-yl)-4,5,6,7-tetrahydro-1H-pyrazolo[4,3-c]pyridin-3-yl)-7-(difluoromethyl)-1,2,3,4-tetrahydroquinolin-6-yl)-1H-pyrazol-1-yl)butyl)-2-(2,6-dioxopiperidin-3-yl)-5,6,7,8-tetrahydro-1H-pyrrolo[3,4-g]isoquinoline-1,3(2H)-dione]

The next lines start with the compound.

SMILES	Dmax [1] [%]	DC50 [1] [nM]	IC50 [2] [nM]	DC50 [3] [nM]	Dmax [3] [%]	IC50 [4] [nM]
CC(=O)N1CCc2c(c(N3CCCc4cc(C5CCCCC5)c(C(F)F)cc43)nn2C2CCN(C(=O)CN3Cc4cc5c(cc4C3)C(=O)N(C3CCC(=O)NC3=O)C5=O)CC2)C1 (centres unmarked) [CP-021, 6-(2-(4-(5-acetyl-3-(6-cyclohexyl-7-(difluoromethyl)-3,4-dihydroquinolin-1(2H)-yl)-4,5,6,7-tetrahydro-1H-pyrazolo[4,3-c]pyridin-1-yl)piperidin-1-yl)-2-oxoethyl)-2-(2,6-dioxopiperidin-3-yl)-6,7-dihydropyrrolo[3,4-f]isoindole-1,3(2H,5H)-dione]	> 90	< 10	< 100	< 10	> 70	< 1000
Cn1cc(-c2cc3c(cc2C(F)F)N(c2nn(C4CCN(C(=O)CN5Cc6cc7c(cc6C5)C(=O)N(C5CCC(=O)NC5=O)C7=O)CC4)c4c2CN(CC(F)F)CC4)CCC3)cn1 (centres unmarked) [CP-058, 6-(2-(4-(5-(2,2-difluoroethyl)-3-(7-(difluoromethyl)-6-(1-methyl-1H-pyrazol-4-yl)-3,4-dihydroquinolin-1(2H)-yl)-4,5,6,7-tetrahydro-1H-pyrazolo[4,3-c]pyridin-1-yl)piperidin-1-yl)-2-oxoethyl)-2-(2,6-dioxopiperidin-3-yl)-6,7-dihydropyrrolo[3,4-f]isoindole-1,3(2H,5H)-dione]	< 50	> 1000	> 10000	> 1000	< 50	> 10000
CCc1cc2c(cc1C(F)F)N(c1nn(C3CCN(C(=O)CN4Cc5cc6c(cc5C4)C(=O)N(C4CCC(=O)NC4=O)C6=O)CC3)c3c1CN(C(C)=O)CC3)CCC2 (centres unmarked) [CP-012, 6-(2-(4-(5-acetyl-3-(7-(difluoromethyl)-6-ethyl-3,4-dihydroquinolin-1(2H)-yl)-4,5,6,7-tetrahydro-1H-pyrazolo[4,3-c]pyridin-1-yl)piperidin-1-yl)-2-oxoethyl)-2-(2,6-dioxopiperidin-3-yl)-6,7-dihydropyrrolo[3,4-f]isoindole-1,3(2H,5H)-dione]	> 90	< 10	< 100	< 10	> 70	< 1000
CC(=O)c1cc2c(cc1C(F)F)N(c1nn(C3CCN(C(=O)CN4CCc5cc6c(cc5C4)C(=O)N(C4CCC(=O)NC4=O)C6=O)CC3)c3c1CN(C(C)=O)CC3)CCC2 (centres unmarked) [CP-020, 6-(2-(4-(5-acetyl-3-(6-acetyl-7-(difluoromethyl)-3,4-dihydroquinolin-1(2H)-yl)-4,5,6,7-tetrahydro-1H-pyrazolo[4,3-c]pyridin-1-yl)piperidin-1-yl)-2-oxoethyl)-2-(2,6-dioxopiperidin-3-yl)-5,6,7,8-tetrahydro-1H-pyrrolo[3,4-g]isoquinoline-1,3(2H)-dione]	< 50	> 1000	< 1000	> 1000	< 50	> 10000
CC(=O)N1CCc2c(c(N3CCCc4cc(-c5cnn(C)c5)c(C(F)F)cc43)nn2C2CCC(CC(=O)N3Cc4cc5c(cc4C3)C(=O)N(C3CCC(=O)NC3=O)C5=O)CC2)C1 (centres unmarked) [CP-027, 6-(2-(4-(5-acetyl-3-(7-(difluoromethyl)-6-(1-methyl-1H-pyrazol-4-yl)-3,4-dihydroquinolin-1(2H)-yl)-4,5,6,7-tetrahydro-1H-pyrazolo[4,3-c]pyridin-1-yl)cyclohexyl)acetyl)-2-(2,6-dioxopiperidin-3-yl)-6,7-dihydropyrrolo[3,4-f]isoindole-1,3(2H,5H)-dione]	< 50	> 1000	< 1000			< 10000
CCC(=O)N1CCc2c(c(N3CCCc4cc(-c5cnn(C)c5)c(C(F)F)cc43)nn2C2CCN(C(=O)CN3Cc4cc5c(cc4C3)C(=O)N(C3CCC(=O)NC3=O)C5=O)CC2)C1 (centres unmarked) [CP-055, 6-(2-(4-(3-(7-(difluoromethyl)-6-(1-methyl-1H-pyrazol-4-yl)-3,4-dihydroquinolin-1(2H)-yl)-5-propionyl-4,5,6,7-tetrahydro-1H-pyrazolo[4,3-c]pyridin-1-yl)piperidin-1-yl)-2-oxoethyl)-2-(2,6-dioxopiperidin-3-yl)-6,7-dihydropyrrolo[3,4-f]isoindole-1,3(2H,5H)-dione]	> 70	< 10	< 1000			< 1000
CC(=O)N1CCc2c(c(N3CCCc4cc(-c5cnn(C)c5)c(C(F)F)cc43)nn2C2CCN(C(=O)CCCN3CCc4cc5c(cc4C3)C(=O)N(C3CCC(=O)NC3=O)C5=O)CC2)C1 (centres unmarked) [CP-004, 6-(4-(4-(5-acetyl-3-(7-(difluoromethyl)-6-(1-methyl-1H-pyrazol-4-yl)-3,4-dihydroquinolin-1(2H)-yl)-4,5,6,7-tetrahydro-1H-pyrazolo[4,3-c]pyridin-1-yl)piperidin-1-yl)-4-oxobutyl)-2-(2,6-dioxopiperidin-3-yl)-5,6,7,8-tetrahydro-1H-pyrrolo[3,4-g]isoquinoline-1,3(2H)-dione]	> 70	< 10	< 1000			< 1000
CC(=O)N1CCc2c(c(N3CCCc4cc(-c5cnn(C)c5)c(C(F)F)cc43)nn2C[C@H]2CC[C@H](C(=O)N3CCc4cc5c(cc4C3)C(=O)N(C3CCC(=O)NC3=O)C5=O)CC2)C1 (stereo partly drawn) [CP-030, trans-6-(4-((5-acetyl-3-(7-(difluoromethyl)-6-(1-methyl-1H-pyrazol-4-yl)-3,4-dihydroquinolin-1(2H)-yl)-4,5,6,7-tetrahydro-1H-pyrazolo[4,3-c]pyridin-1-yl)methyl)cyclohexane-1-carbonyl)-2-(2,6-dioxopiperidin-3-yl)-5,6,7,8-tetrahydro-1H-pyrrolo[3,4-g]isoquinoline-1,3(2H)-dione]	< 50	> 1000	< 1000			< 10000
CC(=O)N1CCc2c(c(N3CCCc4cc(-c5cnn(C)c5)c(C(F)F)cc43)nn2C2CCN(C(=O)CCN3Cc4cc5c(cc4C3)C(=O)N(C3CCC(=O)NC3=O)C5=O)CC2)C1 (centres unmarked) [CP-007, 6-(3-(4-(5-acetyl-3-(7-(difluoromethyl)-6-(1-methyl-1H-pyrazol-4-yl)-3,4-dihydroquinolin-1(2H)-yl)-4,5,6,7-tetrahydro-1H-pyrazolo[4,3-c]pyridin-1-yl)piperidin-1-yl)-3-oxopropyl)-2-(2,6-dioxopiperidin-3-yl)-6,7-dihydropyrrolo[3,4-f]isoindole-1,3(2H,5H)-dione]	> 70	< 100	< 1000			< 1000
